Experimental data as given in patent US6485722B1, “Method for selective engraftment of drug-resistant hematopoietic stem cells” (Regents of the University of Minnesota, priority 1996, dated 2002).

Key:
[1] = MTX toxicity in irradiated mice transplanted with normal (non-transgenic) FVB/N marrow
Procedure: (§1) Male marrow is used as competitor so that Y chromosome sequences can be used as a quantitative signal for the presence of competitor-derived material at the time of analysis, while the DHFR transgene can be used as a quantitative signal for presence of DHFR-transgenic-derived material.
(§2) Animals in each of the three groups were administered either PBS or MTX at an increasing dose schedule culminating at 4 mg/kg/day. MTX administration was continued out to 60 days post-transplant. […] After 60 days, MTX administration is stopped. A small number of animals were sacrificed at this time to collect marrow samples for subsequent analysis, but most of the animals were maintained for an additional 2 months. At 4 months post-transplant, all surviving animals were sacrificed and bone marrow harvested. Each marrow sample collected was resuspended and then injected into 5 lethally-irradiated secondary female FVB/N recipients (2×10^6 donor cells per secondary recipient), saving the leftover marrow for subsequent molecular analysis. Secondary recipients were maintained for an additional 4 months before sacrificing and harvesting marrow samples.

[2] = system: stem cells expressing a MTX-resistant DHFR; assay: Competitive repopulation with 50/50 mixture of normal and DHFR transgenic marrow, Southern blot of marrow DNA; type: in vivo, FVB/N mice
Procedure: as §1, §2

Question: With `CN(Cc1cnc2nc(N)nc(N)c2n1)c1ccc(C(=O)N[C@@H](CCC(=O)O)C(=O)O)cc1` [MTX, methotrexate] as the molecule, how does the “toxicity of low dose MTX” value ([1]; 0.25 mg/kg/day for 1-4 days, 0.5 mg/kg/day next four days, then 1.0 mg/kg/day, recipients of non-transgenic marrow) read?
Answer: Its value is “caused hematopoietic toxicity”.

Question: And the “time at which animals succumb to MTX induced toxicity” value ([1]; irradiated (900 rads) mice transplanted with 10^7 normal FVB/N marrow cells, MTX increasing dose schedule culminating at 4 mg/kg/day, all animals)?
Answer: The value was 15-30 days post-transplant.

Question: What about the “toxicity of high dose MTX” value ([1]; mouse, in vivo, 4 mg/kg/day) of the same molecule?
Answer: Its value is “causes not only hematopoietic toxicity but gastrointestinal toxicity as well”.

Question: What about the “DHFR transgene copy number in primary recipients” value ([2]; animals transplanted with transgenic marrow, MTX rather than PBS) of the same molecule?
Answer: The value was “substantial increase”.

Question: And the “secondary recipients showing a substantial contribution of transgenic marrow” value ([2]; primary transplant 50% normal / 50% DHFR transgenic marrow, MTX up to 4 mg/kg/day for 60 days, secondary recipients analysed 4 months after secondary transplant)?
Answer: The value was 5 out of 5.
